Source: patent publication US8415469B2, “Compounds and methods for kinase modulation, and indications therefor” (Plexxikon Inc., priority 2005, dated 2013)

Key:
Assay type in all cases: biochemical
Kit = target: T1, Kit (Homo sapiens, UniProt P10721); test: AlphaScreen kinase assay, Kit; settings: read-out: IC50, activity toward kinase Kit
T1 construct: P1332.N6 BI PTP KIT M552-K948-X COD; His6 (N); made in house; host or cells: E. coli (PTP1B co-expressed)

Flt1 = target: T2, Flt1 (Homo sapiens, UniProt P17948); test: AlphaScreen kinase assay, Flt1; settings: read-out: IC50, activity toward kinase Flt1
T2 construct: P1826.pETN6 BI-PTP FLT1 M799-D1165-X WT; His6 (N); made in house; host or cells: E. coli (PTP1B co-expressed)
T2 sequence (P17948 with tags, fused parts or gaps): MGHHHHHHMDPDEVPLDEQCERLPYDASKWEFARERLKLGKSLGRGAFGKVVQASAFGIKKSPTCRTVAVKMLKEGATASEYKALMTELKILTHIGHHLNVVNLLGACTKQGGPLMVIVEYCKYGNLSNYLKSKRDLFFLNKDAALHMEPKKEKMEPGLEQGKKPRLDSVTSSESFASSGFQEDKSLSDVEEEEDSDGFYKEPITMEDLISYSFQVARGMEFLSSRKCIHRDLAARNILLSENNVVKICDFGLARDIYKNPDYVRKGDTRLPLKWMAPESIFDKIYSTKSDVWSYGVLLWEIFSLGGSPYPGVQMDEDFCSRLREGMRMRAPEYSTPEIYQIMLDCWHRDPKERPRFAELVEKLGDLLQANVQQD

Akt3 = Akt3 (Homo sapiens, UniProt Q9Y243); test: AlphaScreen kinase assay, Akt3; settings: read-out: IC50, activity toward kinase Akt3
Sequence of Akt3 (Q9Y243 whole entry): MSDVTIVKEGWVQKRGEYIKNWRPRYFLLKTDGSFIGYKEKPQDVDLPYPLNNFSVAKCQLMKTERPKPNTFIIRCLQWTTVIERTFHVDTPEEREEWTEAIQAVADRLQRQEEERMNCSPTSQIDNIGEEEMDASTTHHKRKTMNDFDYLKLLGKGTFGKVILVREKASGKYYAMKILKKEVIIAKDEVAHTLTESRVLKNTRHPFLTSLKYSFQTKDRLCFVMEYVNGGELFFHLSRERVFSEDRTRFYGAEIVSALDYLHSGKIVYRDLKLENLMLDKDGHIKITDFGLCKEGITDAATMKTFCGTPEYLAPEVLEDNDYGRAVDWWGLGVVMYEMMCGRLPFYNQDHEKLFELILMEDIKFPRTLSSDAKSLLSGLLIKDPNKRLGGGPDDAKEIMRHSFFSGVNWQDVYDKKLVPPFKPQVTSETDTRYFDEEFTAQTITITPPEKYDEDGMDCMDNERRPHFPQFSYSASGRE
Text: AlphaScreen assay was used to screen additional kinases. The assay is similarly dependent on the phosphorylation of a peptide substrate. In this assay, an antibody that recognizes phosphorylated substrate is bound to an acceptor bead. The peptide substrate is attached to biotin, which binds to a donor head that contains streptavidin. Thus phosphorylated substrate is bound by antibody and streptavidin, bringing the donor and acceptor heads into close proximity when kinase is not inhibited. The donor produces singlet oxygen which results in emission from the acceptor when they are in close proximity. Conversely, when kinase is inhibited, the donor and acceptor beads are not associated and the emission from the acceptor is reduced.
AlphaScreen assays were done using compounds dissolved in DMSO to a concentration of 20 mM. The compounds were diluted accordingly to the desired final concentrations in each sample well, using 1:3 serial dilution for a total of 8 concentration points.

Pyk2 = target: T3, Pyk2 (Homo sapiens, UniProt Q14289); test: AlphaScreen kinase assay, Pyk2; settings: read-out: IC50, activity toward kinase Pyk2
T3 construct: purchased Upstate Biotechnology
T3 sequence (Q14289 whole entry): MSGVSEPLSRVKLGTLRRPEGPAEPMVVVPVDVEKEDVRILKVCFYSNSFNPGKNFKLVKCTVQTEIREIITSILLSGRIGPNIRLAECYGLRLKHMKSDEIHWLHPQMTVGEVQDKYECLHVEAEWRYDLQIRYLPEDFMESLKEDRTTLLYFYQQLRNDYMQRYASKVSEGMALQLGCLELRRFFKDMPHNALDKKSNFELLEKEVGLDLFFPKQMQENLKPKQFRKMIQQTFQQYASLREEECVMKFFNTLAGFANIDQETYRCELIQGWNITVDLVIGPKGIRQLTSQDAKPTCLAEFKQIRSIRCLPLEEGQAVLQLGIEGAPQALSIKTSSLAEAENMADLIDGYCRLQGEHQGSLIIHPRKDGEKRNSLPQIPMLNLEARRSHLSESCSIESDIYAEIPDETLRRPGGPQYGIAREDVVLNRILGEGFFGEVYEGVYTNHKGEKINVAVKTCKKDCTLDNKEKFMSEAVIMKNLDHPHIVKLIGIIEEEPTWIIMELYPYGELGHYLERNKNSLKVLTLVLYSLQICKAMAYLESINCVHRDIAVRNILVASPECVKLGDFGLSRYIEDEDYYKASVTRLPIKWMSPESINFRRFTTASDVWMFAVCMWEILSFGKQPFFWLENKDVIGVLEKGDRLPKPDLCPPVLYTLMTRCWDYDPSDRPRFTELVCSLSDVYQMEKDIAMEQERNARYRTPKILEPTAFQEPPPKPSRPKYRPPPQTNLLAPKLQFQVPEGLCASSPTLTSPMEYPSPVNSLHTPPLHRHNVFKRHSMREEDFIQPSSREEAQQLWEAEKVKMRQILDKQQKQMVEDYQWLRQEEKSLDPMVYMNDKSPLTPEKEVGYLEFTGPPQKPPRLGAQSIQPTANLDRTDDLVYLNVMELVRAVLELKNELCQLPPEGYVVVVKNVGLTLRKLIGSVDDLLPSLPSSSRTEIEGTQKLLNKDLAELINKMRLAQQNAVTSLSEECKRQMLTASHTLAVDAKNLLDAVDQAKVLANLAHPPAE

FGFR1 = target: T4, FGFR1 (Homo sapiens, UniProt P11362, C488A/C584S); test: AlphaScreen kinase assay, FGFR1; settings: read-out: IC50, activity toward kinase FGFR
T4 construct: P1351.pET N6 BI-PTP FGFR A458-E765-X C488A, C584S; made in house; host or cells: E. coli (PTP1B co-expressed)

B-Raf V600E = target: T5, B-Raf V600E (Homo sapiens, UniProt P15056, V600E); test: AlphaScreen kinase assay, B-Raf V600E; settings: read-out: IC50, activity toward kinase B-Raf V600E
T5 construct: P4254. pFastBacBD-CDC37 BRAF D437-K722-X, V600E; His6 with pFastBac HT leader (TEV site) (N); made in house; host or cells: Sf9 (baculovirus; chaperone CDC37 co-expressed)
T5 sequence (P15056 with tags, fused parts or gaps V600E): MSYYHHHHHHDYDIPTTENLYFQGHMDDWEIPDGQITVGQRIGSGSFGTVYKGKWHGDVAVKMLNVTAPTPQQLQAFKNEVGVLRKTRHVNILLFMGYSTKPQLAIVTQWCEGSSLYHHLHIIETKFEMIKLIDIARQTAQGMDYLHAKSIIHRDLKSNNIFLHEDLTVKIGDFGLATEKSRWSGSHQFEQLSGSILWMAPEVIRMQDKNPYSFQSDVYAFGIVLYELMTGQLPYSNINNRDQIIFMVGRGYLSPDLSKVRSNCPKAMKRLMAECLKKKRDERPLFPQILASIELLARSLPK

Jnk3 = target: T6, Jnk3 (Homo sapiens, UniProt P53779); test: AlphaScreen kinase assay, Jnk3; settings: read-out: IC50, activity toward kinase Jnk3
T6 construct: purchased Upstate Biotechnology
T6 sequence (P53779 whole entry): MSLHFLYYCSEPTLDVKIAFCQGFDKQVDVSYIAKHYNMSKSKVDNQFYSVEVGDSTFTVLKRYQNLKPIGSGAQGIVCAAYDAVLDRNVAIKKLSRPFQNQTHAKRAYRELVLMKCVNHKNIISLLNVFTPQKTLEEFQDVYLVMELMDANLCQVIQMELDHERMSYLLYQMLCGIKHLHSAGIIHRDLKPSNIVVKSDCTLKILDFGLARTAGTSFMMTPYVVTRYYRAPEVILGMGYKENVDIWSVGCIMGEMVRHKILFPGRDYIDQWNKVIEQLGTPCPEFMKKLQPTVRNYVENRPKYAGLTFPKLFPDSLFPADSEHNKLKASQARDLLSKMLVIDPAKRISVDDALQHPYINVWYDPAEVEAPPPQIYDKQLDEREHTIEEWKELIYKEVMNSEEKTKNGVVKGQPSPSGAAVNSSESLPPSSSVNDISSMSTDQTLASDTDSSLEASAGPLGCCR

c-Raf-1 = target: T7, c-Raf-1 (Homo sapiens, UniProt P04049); test: AlphaScreen kinase assay, c-Raf-1; settings: read-out: IC50, activity toward kinase c-Raf-1
T7 construct: purchased Upstate Biotechnology
T7 sequence (P04049 whole entry): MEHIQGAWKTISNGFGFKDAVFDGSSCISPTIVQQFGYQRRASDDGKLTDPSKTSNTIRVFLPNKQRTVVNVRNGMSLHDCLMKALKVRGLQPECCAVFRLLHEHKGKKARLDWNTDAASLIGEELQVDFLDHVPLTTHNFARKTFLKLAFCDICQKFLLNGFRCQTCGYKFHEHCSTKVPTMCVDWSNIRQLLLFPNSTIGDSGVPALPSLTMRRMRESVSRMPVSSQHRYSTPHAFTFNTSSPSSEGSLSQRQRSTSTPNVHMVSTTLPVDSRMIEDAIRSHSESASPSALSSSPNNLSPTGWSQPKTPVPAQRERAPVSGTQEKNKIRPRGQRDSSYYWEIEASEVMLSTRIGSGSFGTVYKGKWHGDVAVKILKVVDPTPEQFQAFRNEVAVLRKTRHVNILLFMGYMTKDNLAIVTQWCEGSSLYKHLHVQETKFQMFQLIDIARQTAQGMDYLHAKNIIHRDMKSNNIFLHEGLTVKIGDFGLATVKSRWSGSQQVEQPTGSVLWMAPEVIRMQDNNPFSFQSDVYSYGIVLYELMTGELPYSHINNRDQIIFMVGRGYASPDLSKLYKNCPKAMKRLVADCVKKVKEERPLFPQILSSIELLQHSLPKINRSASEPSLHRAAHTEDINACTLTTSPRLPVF

Ret = target: T8, Ret (Homo sapiens, UniProt P07949); test: AlphaScreen kinase assay, Ret; settings: read-out: IC50, activity toward kinase Ret
T8 construct: P1378.pET-SF BI-PTP RET H661-R1012 HIS; made in house
T8 sequence (P07949 with tags, fused parts or gaps): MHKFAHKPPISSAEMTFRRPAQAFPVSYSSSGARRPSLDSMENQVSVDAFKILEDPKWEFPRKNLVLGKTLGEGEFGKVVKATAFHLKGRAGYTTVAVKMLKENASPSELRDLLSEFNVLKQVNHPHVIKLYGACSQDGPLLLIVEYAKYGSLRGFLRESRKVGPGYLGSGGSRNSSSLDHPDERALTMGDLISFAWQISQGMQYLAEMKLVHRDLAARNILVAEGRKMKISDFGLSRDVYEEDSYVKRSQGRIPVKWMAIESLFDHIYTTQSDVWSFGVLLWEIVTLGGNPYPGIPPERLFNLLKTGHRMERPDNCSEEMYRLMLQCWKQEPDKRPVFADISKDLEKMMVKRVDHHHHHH

B-Raf = target: T9, B-Raf (Homo sapiens, UniProt P15056); test: AlphaScreen kinase assay, B-Raf; settings: read-out: IC50, activity toward kinase B-Raf
T9 construct: purchased Upstate Biotechnology
T9 sequence (P15056 whole entry): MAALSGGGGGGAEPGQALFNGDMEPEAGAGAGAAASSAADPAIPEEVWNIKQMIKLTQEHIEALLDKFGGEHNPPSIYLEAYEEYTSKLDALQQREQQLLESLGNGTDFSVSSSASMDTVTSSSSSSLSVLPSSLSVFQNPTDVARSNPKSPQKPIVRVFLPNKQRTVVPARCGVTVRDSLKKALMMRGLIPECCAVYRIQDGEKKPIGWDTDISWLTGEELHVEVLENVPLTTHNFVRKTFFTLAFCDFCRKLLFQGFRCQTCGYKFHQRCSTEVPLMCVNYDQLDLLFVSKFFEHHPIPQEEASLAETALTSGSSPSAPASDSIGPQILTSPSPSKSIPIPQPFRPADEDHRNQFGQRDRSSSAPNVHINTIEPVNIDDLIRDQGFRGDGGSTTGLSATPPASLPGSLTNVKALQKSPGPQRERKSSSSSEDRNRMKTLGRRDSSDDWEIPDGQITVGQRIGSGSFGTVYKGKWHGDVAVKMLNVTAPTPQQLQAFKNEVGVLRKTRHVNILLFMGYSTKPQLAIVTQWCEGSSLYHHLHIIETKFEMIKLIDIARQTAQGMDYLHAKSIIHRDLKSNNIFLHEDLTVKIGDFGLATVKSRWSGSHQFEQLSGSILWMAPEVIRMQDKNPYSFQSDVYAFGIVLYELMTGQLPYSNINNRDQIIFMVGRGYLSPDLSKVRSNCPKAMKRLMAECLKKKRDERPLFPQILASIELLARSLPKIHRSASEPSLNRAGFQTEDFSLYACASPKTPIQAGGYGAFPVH

Src = target: T10, Src (Homo sapiens, UniProt P12931); test: AlphaScreen kinase assay, Src; settings: read-out: IC50, activity toward kinase Src
T10 construct: P1144. pET-N6 BI-PTP SRC V86-L536-X; made in house
T10 sequence (P12931 with tags, fused parts or gaps): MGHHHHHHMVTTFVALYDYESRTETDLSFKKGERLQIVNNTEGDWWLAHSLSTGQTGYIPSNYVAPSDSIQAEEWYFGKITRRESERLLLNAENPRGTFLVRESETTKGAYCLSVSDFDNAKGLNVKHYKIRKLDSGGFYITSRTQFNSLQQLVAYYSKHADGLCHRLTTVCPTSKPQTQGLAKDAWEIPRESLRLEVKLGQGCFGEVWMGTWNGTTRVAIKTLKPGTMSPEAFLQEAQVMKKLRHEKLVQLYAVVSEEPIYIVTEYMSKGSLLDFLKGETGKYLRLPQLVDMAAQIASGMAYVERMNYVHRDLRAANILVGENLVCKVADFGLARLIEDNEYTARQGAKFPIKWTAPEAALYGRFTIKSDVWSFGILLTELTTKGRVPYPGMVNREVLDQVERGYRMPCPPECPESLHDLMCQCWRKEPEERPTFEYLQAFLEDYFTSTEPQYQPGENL

Fms = target: T11, Fms (Homo sapiens, UniProt P07333); test: AlphaScreen kinase assay, Fms; settings: read-out: IC50, activity toward kinase Fms
T11 construct: purchased Upstate Biotechnology

Fak = target: T12, Fak (Homo sapiens, UniProt Q05397); test: AlphaScreen kinase assay, Fak; settings: read-out: IC50, activity toward kinase Fak
T12 construct: P1358.pFastBacHtb FAK S411-Q686-X; His6 with pFastBacHTb leader (TEV site) (N); made in house; host or cells: Sf9 (baculovirus)

Jnk1 = target: T13, Jnk1 (Homo sapiens, UniProt P45983); test: AlphaScreen kinase assay, Jnk1; settings: read-out: IC50, activity toward kinase Jnk1
T13 construct: purchased Upstate Biotechnology
T13 sequence (P45983 whole entry): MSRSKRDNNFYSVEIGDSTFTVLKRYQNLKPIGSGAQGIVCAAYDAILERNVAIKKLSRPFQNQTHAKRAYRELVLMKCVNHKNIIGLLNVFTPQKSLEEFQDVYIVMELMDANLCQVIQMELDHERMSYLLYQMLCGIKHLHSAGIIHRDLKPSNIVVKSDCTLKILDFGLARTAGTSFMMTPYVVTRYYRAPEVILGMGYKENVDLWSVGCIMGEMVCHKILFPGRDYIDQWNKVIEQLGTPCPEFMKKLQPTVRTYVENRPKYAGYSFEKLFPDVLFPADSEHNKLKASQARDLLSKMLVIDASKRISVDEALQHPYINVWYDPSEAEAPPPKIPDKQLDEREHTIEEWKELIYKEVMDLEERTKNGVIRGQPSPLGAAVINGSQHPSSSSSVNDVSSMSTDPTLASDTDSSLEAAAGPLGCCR
Protocol: AlphaScreen assays were done using compounds dissolved in DMSO to a concentration of 20 mM. The compounds were diluted accordingly to the desired final concentrations in each sample well, using 1:3 serial dilution for a total of 8 concentration points. Plates were prepared such that each kinase reaction is 20 μl in 1× kinase buffer, 5% DMSO and 10 μM ATP. After incubation of the kinase reaction for 1 hour at room temperature, 5 μl of donor beads in stop buffer (50 mM EDTA in 1× kinase buffer) was added, the sample was mixed and incubated for 20 minutes at room temperature before adding 5 μl of acceptor beads in stop buffer. The samples were incubated for 60 minutes at room temperature and the signal per well was read on AlphaQuest reader.

Btk = target: T14, Btk (Homo sapiens, UniProt Q06187); test: Z'-Lyte FRET kinase assay (Invitrogen), Btk; settings: read-out: IC50, activity toward kinase Btk
T14 construct: purchased Invitrogen (assay run by Invitrogen)

MAP4K4 = MAP4K4 (Homo sapiens, UniProt O95819); test: AlphaScreen kinase assay, MAP4K4; settings: read-out: IC50, activity toward kinase MAP4K4

Measured: IC50

T1 sequence (P10721 with tags, fused parts or gaps): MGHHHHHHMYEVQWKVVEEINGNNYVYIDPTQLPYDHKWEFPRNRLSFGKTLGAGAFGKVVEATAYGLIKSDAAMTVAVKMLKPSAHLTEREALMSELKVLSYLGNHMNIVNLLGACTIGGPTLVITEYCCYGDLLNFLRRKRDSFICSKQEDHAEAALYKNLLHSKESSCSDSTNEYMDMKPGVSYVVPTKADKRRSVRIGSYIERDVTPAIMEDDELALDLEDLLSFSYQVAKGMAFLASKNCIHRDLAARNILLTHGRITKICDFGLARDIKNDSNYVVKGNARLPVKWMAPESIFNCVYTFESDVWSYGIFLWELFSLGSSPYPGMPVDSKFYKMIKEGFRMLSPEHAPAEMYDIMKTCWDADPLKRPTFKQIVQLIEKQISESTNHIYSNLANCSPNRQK

CCOc1ccc(Nc2cnc3[nH]ccc3c2)cc1 [Compound P-1018]
≤ 10 µM: Kit | Flt1 | Akt3 | Pyk2 | FGFR1 | B-Raf V600E | Jnk3

Fc1ccc(Nc2ccnc3[nH]ccc23)cc1 [Compound P-1145]
≤ 10 µM: Akt3 | c-Raf-1

c1cc(Nc2ccc(-c3cnco3)cc2)c2cc[nH]c2n1 [Compound P-1147]
≤ 10 µM: Flt1 | Akt3

COc1cccc(C(=O)c2c[nH]c3nccc(-c4cccc(C(N)=O)c4)c23)c1 [Compound P-0329]
≤ 10 µM: Akt3 | Ret | FGFR1

O=C(c1c(F)ccc(NS(=O)(=O)N2CCCCC2)c1F)c1c[nH]c2ncccc12 [Compound P-0952, Piperidine-1-sulfonic acid [2,4-difluoro-3-(1H-pyrrolo[2,3-b]pyridine-3-carbonyl)-phenyl]-amide]
≤ 10 µM: B-Raf | Kit | Akt3 | FGFR1 | B-Raf V600E | c-Raf-1 | Src | Fms

CCCOc1ccc(Nc2cnc3[nH]ccc3c2)cc1 [Compound P-1010]
≤ 10 µM: Kit | Flt1 | Akt3 | Pyk2 | B-Raf V600E | Src | Jnk3

c1cc2cc(Nc3ccc4c(c3)OCCO4)cnc2[nH]1 [Compound P-1022]
≤ 10 µM: Akt3 | B-Raf V600E | Jnk3

CC(=O)c1cccc(Nc2ccnc3[nH]ccc23)c1 [Compound P-1027]
≤ 10 µM: B-Raf | Flt1 | Akt3 | FGFR1 | c-Raf-1

CN(C)c1cccc(Nc2ccnc3[nH]ccc23)c1 [Compound P-0861]
≤ 10 µM: B-Raf | Kit | Akt3 | Pyk2 | B-Raf V600E | c-Raf-1

NC(=O)c1cccc(-c2cnc3[nH]cc(C(=O)c4ccc(O)cc4F)c3c2)c1 [Compound P-1459]
≤ 10 µM: Fak | B-Raf | Akt3 | FGFR1 | Jnk1 | Btk | B-Raf V600E | Src | Fms

Clc1ccc(Nc2cnc3[nH]ccc3c2)cc1 [Compound P-1082]
≤ 10 µM: Kit | Flt1 | Akt3 | B-Raf V600E | Jnk3

COc1ccc(-c2c[nH]c3ncccc23)cc1OC1CCCC1 [Compound P-0573]
≤ 10 µM: Akt3 | B-Raf V600E | MAP4K4

COC(c1ccc(NCc2ccc(Cl)cc2)nc1)c1c[nH]c2ncccc12 (stereo not shown) [Compound P-0307]
≤ 10 µM: B-Raf | Akt3 | Ret | B-Raf V600E | c-Raf-1

CCN(CC)c1ccc(Nc2ccnc3[nH]ccc23)cc1 [Compound P-0866]
≤ 10 µM: B-Raf | Kit | Flt1 | Akt3 | Pyk2 | B-Raf V600E | c-Raf-1 | Src

Clc1ccc(Nc2ccnc3[nH]ccc23)cc1 [Compound P-0978]
≤ 10 µM: B-Raf | Kit | Akt3 | Pyk2 | c-Raf-1

COc1ccc(Nc2cnc3[nH]ccc3c2)cc1Cl [Compound P-1021]
≤ 10 µM: Kit | Flt1 | Akt3 | FGFR1 | Jnk1 | B-Raf V600E | Src | Jnk3

Clc1cccc(Nc2ccnc3[nH]ccc23)c1 [Compound P-0924]
≤ 10 µM: B-Raf | Kit | Akt3 | Pyk2 | c-Raf-1

CN(C)c1ccc(Nc2ccnc3[nH]ccc23)cc1 [Compound P-0890]
≤ 10 µM: Akt3 | c-Raf-1

O=C(NCc1ccccc1)c1ccc(-c2c[nH]c3ncccc23)cc1 [Compound P-0278]
≤ 10 µM: Flt1 | Akt3

Fc1cccc(Nc2ccnc3[nH]ccc23)c1 [Compound P-1047]
≤ 10 µM: Akt3 | c-Raf-1

CCCS(=O)(=O)Nc1ccc(F)c(Cc2c[nH]c3ncc(C(C)C)cc23)c1F [Compound P-1288]
≤ 10 µM: Fak | B-Raf | Akt3 | Pyk2 | FGFR1 | Jnk1 | B-Raf V600E | c-Raf-1 | Src
